The text below walks through data of patent publication US8471005B2 (Cephalon, Inc., priority 2008, dated 2013).

SMILES strings stand for the structures. Bounds are passed on as bounds.

In one assay the target is T1, ALK (Homo sapiens, UniProt Q9UM73).
T1 construct: host or cells: baculovirus expression system
Put plainly: ALK Kinase Assay (ELISA/TRF, PLC-γ substrate). The format is biochemical. The following applies: ALK kinase inhibition, 1 μM ATP; read-out: ALK Potency. The procedure, abridged: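 IC50 values derive from percent inhibition plotted against log10 compound concentration and fitted to a variable-slope sigmoidal equation. The underlying reaction used 30 ng/ml ALK acting on immobilized PLC-γ (10 μg/mL in TBS) at 37° C for 15 minutes, read with Eu-N1 PT66 antibody.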
A general note: An ELISA detects its analyte on a solid surface through an enzyme-linked reagent.

The target in the next assay is T2, JAK2 (Homo sapiens, UniProt O60674).
T2 construct: host or cells: baculovirus expression system
The assay can be described thus: Recombinant Human JAK2 Kinase Assay (TRF). The format is biochemical. The following applies: JAK2 kinase inhibition, 0.2 μM ATP; read-out: JAK2 Potency. The procedure, abridged:
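Baculovirus-expressed JAK2 (15 ng/ml) phosphorylated a biotinylated 15-mer peptide captured on Neutravidin, in 20 mM HEPES pH 7.2, 0.2 μM ATP, 1 mM MnCl2, 0.1% BSA, 2.5% DMSO final, 20 min at room temperature. Phosphoproduct detected by time-resolved fluorescence with Eu-N1-labelled PY100 antibody.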

T1 sequence (Q9UM73 19-1620): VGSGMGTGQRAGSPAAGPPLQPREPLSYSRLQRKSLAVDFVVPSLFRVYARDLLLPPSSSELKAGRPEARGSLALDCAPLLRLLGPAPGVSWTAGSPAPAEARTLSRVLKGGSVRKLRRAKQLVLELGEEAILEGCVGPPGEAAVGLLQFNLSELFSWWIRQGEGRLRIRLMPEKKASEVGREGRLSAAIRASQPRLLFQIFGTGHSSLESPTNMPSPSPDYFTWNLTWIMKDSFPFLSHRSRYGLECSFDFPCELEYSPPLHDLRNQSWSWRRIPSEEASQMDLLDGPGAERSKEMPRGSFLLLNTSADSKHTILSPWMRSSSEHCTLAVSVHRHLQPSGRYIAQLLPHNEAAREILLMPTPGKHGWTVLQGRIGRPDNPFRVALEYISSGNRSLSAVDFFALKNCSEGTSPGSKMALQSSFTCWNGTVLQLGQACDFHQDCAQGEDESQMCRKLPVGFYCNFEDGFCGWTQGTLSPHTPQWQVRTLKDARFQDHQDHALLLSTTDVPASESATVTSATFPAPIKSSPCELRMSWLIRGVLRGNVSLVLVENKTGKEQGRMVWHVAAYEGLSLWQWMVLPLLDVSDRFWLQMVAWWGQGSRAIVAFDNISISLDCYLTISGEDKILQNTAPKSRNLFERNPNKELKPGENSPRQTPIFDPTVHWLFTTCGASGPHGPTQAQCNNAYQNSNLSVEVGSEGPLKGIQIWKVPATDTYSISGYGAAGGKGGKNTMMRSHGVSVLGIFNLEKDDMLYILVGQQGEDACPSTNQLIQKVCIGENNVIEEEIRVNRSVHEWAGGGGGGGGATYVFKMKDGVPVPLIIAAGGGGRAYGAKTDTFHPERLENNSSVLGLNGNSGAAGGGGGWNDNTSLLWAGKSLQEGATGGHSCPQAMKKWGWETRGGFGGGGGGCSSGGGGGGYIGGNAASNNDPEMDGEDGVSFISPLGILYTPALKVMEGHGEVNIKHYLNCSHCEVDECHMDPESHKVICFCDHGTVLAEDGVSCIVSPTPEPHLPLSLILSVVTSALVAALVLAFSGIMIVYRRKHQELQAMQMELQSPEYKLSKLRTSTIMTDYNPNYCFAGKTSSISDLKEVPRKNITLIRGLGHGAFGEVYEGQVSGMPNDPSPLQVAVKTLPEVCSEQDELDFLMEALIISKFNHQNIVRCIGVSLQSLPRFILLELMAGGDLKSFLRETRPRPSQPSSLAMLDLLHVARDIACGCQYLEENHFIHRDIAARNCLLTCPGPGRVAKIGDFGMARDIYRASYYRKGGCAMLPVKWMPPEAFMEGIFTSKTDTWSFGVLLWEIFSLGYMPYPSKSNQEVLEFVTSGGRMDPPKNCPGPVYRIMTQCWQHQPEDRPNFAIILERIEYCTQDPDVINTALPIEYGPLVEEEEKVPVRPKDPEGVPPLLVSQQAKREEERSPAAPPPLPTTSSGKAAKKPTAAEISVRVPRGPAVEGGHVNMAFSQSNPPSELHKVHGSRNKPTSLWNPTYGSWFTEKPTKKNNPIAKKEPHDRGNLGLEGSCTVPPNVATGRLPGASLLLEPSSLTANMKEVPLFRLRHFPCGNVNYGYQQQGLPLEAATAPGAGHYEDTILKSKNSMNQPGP
T2 sequence (O60674 whole entry): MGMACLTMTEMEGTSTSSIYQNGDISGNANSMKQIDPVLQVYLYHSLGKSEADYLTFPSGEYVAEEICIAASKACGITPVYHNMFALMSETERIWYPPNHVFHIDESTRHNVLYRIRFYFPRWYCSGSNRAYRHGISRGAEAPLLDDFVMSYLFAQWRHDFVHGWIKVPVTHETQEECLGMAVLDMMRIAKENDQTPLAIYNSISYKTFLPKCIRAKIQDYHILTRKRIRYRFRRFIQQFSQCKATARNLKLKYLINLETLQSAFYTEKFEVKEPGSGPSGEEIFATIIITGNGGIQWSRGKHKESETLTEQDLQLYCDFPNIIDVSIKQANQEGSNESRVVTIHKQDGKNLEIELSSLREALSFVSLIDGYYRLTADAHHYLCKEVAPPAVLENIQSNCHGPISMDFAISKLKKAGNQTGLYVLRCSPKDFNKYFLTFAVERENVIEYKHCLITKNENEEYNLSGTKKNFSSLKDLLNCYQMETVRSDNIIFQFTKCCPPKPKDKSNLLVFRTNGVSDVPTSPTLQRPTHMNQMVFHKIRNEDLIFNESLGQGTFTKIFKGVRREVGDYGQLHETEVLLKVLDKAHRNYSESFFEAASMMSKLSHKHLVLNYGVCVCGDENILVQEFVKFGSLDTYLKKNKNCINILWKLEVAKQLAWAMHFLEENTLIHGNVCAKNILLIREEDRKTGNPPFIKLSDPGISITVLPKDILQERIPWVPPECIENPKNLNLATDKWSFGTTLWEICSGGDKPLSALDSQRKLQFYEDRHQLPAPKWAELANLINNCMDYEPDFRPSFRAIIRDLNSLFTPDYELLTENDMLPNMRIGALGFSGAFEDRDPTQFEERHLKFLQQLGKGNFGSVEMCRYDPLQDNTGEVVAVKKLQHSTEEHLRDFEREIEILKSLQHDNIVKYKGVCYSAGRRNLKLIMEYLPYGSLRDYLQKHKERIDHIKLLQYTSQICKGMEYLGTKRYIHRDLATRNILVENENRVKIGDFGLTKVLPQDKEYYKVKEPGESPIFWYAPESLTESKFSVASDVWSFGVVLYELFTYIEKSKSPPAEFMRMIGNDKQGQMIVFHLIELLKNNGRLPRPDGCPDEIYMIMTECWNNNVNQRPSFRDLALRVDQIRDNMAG

As to `CCS(=O)(=O)c1cccc(-c2ccc3cnc(Nc4ccc5nc(C(F)(F)F)[nH]c5c4)nn23)c1` [Example 1313, [7-(3-Ethanesulfonyl-phenyl)-pyrrolo[2,1-f][1,2,4]triazin-2-yl]-(2-trifluoromethyl-3H-benzimidazol-5-yl)-amine], the values for the IC50 on ALK and at JAK2 were more than 10000 nM and less than 100 nM, respectively.

On to `O=S(=O)(CC1CC1)c1cccc(-c2ccc3cnc(Nc4ccc5[nH]ncc5c4)nn23)c1` [Example 1314], for which the IC50 on ALK is 1000 to 10000 nM; on JAK2, less than 100 nM.

With `CC(C)(C)NS(=O)(=O)c1cccc(-c2ccc3cnc(Nc4ccc5[nH]ncc5c4)nn23)c1` [Example 1315, N-tert-Butyl-3-[2-(1H-indazol-5-ylamino)-pyrrolo[2,1-f][1,2,4]triazin-7-yl]-benzenesulfonamide], the IC50 was 1000 to 10000 nM at ALK and less than 100 nM on JAK2.

Turning to `Cn1ncc2cc(Nc3ncc4ccc(-c5cccc(S(=O)(=O)NC(C)(C)C)c5)n4n3)ccc21` [Example 1316, N-tert-Butyl-3-[2-(1-methyl-1H-indazol-5-ylamino)-pyrrolo[2,1-f][1,2,4]triazin-7-yl]-benzenesulfonamide], the IC50 is 100 to 1000 nM at ALK and less than 100 nM at JAK2.

Turning to `Cn1ncc2ccc(Nc3ncc4ccc(-c5cccc(S(=O)(=O)NC(C)(C)C)c5)n4n3)cc21` [Example 1317, N-tert-Butyl-3-[2-(1-methyl-1H-indazol-6-ylamino)-pyrrolo[2,1-f][1,2,4]triazin-7-yl]-benzenesulfonamide], the figures for the IC50 on ALK and at JAK2 were 1000 to 10000 nM and less than 100 nM, respectively.

Consider `O=S(=O)(CC1CC1)c1cccc(-c2ccc3cnc(Nc4ccc5nc(C(F)(F)F)[nH]c5c4)nn23)c1` [Example 1318, [7-(3-Cyclopropylmethanesulfonyl-phenyl)-pyrrolo[2,1-f][1,2,4]triazin-2-yl]-(2-trifluoromethyl-3H-benzimidazol-5-yl)-amine], for which the IC50 on ALK was more than 10000 nM; on JAK2 it was less than 100 nM.

Consider `O=S(=O)(CC1CC1)c1cccc(-c2ccc3cnc(Nc4ccc5nc[nH]c5c4)nn23)c1` [Example 1319, (3H-Benzimidazol-5-yl)-[7-(3-cyclopropylmethanesulfonyl-phenyl)-pyrrolo[2,1-f][1,2,4]triazin-2-yl]-amine], for which the IC50 at ALK is 1000 to 10000 nM; at JAK2 it was less than 100 nM.

With `Cn1cnc2ccc(Nc3ncc4ccc(-c5cccc(S(=O)(=O)CC6CC6)c5)n4n3)cc21` [Example 1320, [7-(3-Cyclopropylmethanesulfonyl-phenyl)-pyrrolo[2,1-f][1,2,4]triazin-2-yl]-(3-methyl-3H-benzimidazol-5-yl)-amine], the IC50 at ALK is 100 to 1000 nM; on JAK2 it was less than 100 nM.

Turning to `Cn1ncc2ccc(Nc3ncc4ccc(-c5cccc(S(=O)(=O)CC6CC6)c5)n4n3)cc21` [Example 1321, [7-(3-Cyclopropylmethanesulfonyl-phenyl)-pyrrolo[2,1-f][1,2,4]triazin-2-yl]-(1-methyl-1H-indazol-6-yl)-amine], the IC50 on ALK is 1000 to 10000 nM; on JAK2, less than 100 nM.

Take `Cn1ncc2cc(Nc3ncc4ccc(-c5cccc(S(=O)(=O)CC6CC6)c5)n4n3)ccc21` [Example 1322, [7-(3-Cyclopropylmethanesulfonyl-phenyl)-pyrrolo[2,1-f][1,2,4]triazin-2-yl]-(1-methyl-1H-indazol-5-yl)-amine]: the IC50 at ALK is 1000 to 10000 nM; on JAK2 it was less than 100 nM.

For `CC(C)(C)NS(=O)(=O)c1cccc(-c2ccc3cnc(Nc4ccc5c(cnn5CCN5CCOCC5)c4)nn23)c1` [Example 1323, N-tert-Butyl-3-{2-[1-(2-morpholin-4-yl-ethyl)-1H-indazol-5-ylamino]-pyrrolo[2,1-f][1,2,4]triazin-7-yl}-benzenesulfonamide], the IC50 on ALK is 100 to 1000 nM; on JAK2, less than 100 nM.

As for `CC(C)(C)NS(=O)(=O)c1cccc(-c2ccc3cnc(Nc4ccc5cnn(CCN6CCOCC6)c5c4)nn23)c1` [Example 1324, N-tert-Butyl-3-{2-[1-(2-morpholin-4-yl-ethyl)-1H-indazol-6-ylamino]-pyrrolo[2,1-f][1,2,4]triazin-7-yl}-benzenesulfonamide], the IC50 on ALK was 1000 to 10000 nM; on JAK2 it was less than 100 nM.

With `CC(C)(C)NS(=O)(=O)c1cccc(-c2ccc3cnc(Nc4ccc5c(c4)ncn5CCN4CCOCC4)nn23)c1` [Example 1325, N-tert-Butyl-3-{2-[1-(2-morpholin-4-yl-ethyl)-1H-benzimidazol-5-ylamino]-pyrrolo[2,1-f][1,2,4]triazin-7-yl}-benzenesulfonamide], the IC50 at ALK was 100 to 1000 nM; on JAK2, less than 100 nM.

As to `CC(C)(C)NS(=O)(=O)c1cccc(-c2ccc3cnc(Nc4ccc5ncn(CCN6CCOCC6)c5c4)nn23)c1` [Example 1326, N-tert-Butyl-3-{2-[3-(2-morpholin-4-yl-ethyl)-3H-benzimidazol-5-ylamino]-pyrrolo[2,1-f][1,2,4]triazin-7-yl}-benzenesulfonamide], the IC50 at ALK is 100 to 1000 nM; at JAK2 it was less than 100 nM.

Consider `CC(C)(C)NS(=O)(=O)c1cccc(-c2ccc3cnc(Nc4ccc5cn[nH]c5c4)nn23)c1` [Example 1327, N-tert-Butyl-3-[2-(1H-indazol-6-ylamino)-pyrrolo[2,1-f][1,2,4]triazin-7-yl]-benzenesulfonamide], for which the IC50 was 1000 to 10000 nM on ALK and less than 100 nM on JAK2.

Regarding `CCc1nc2ccc(Nc3ncc4ccc(-c5cccc(S(=O)(=O)NC(C)(C)C)c5)n4n3)cc2[nH]1` [Example 1328, N-tert-Butyl-3-[2-(2-ethyl-3H-benzimidazol-5-ylamino)-pyrrolo[2,1-f][1,2,4]triazin-7-yl]-benzenesulfonamide], the IC50 on ALK is 100 to 1000 nM; at JAK2, less than 100 nM.

As for `CC(C)c1nc2ccc(Nc3ncc4ccc(-c5cccc(S(=O)(=O)NC(C)(C)C)c5)n4n3)cc2[nH]1` [Example 1329, N-tert-Butyl-3-[2-(2-isopropyl-3H-benzimidazol-5-ylamino)-pyrrolo[2,1-f][1,2,4]triazin-7-yl]-benzenesulfonamide], the figures for the IC50 on ALK and at JAK2 were 1000 to 10000 nM and less than 100 nM, respectively.

Take `CC(C)(C)NS(=O)(=O)c1cccc(-c2ccc3cnc(Nc4ccc5nc(C(C)(C)C)[nH]c5c4)nn23)c1` [Example 1330, N-tert-Butyl-3-[2-(2-tert-butyl-3H-benzimidazol-5-ylamino)-pyrrolo[2,1-f][1,2,4]triazin-7-yl]-benzenesulfonamide]: the IC50 on ALK was 1000 to 10000 nM; at JAK2, less than 100 nM.

Turning to `Cc1nc2ccc(Nc3ncc4ccc(-c5cccc(S(=O)(=O)NC(C)(C)C)c5)n4n3)cc2n1C` [Example 1331, N-tert-Butyl-3-[2-(2,3-dimethyl-3H-benzimidazol-5-ylamino)-pyrrolo[2,1-f][1,2,4]triazin-7-yl]-benzenesulfonamide], the IC50 on ALK is 100 to 1000 nM; at JAK2, less than 100 nM.

For `Cn1cnc2cc(Nc3ncc4ccc(-c5cccc(S(=O)(=O)NC(C)(C)C)c5)n4n3)ccc21` [Example 1332, N-tert-Butyl-3-[2-(1-methyl-1H-benzimidazol-5-ylamino)-pyrrolo[2,1-f][1,2,4]triazin-7-yl]-benzenesulfonamide], the IC50 on ALK was more than 10000 nM; at JAK2, less than 100 nM.

On to `CN(c1ccccc1-c1ccc2cnc(Nc3ccc4c(cnn4CCN4CCOCC4)c3)nn12)S(C)(=O)=O` [Example 1333, N-Methyl-N-(2-{2-[1-(2-morpholin-4-yl-ethyl)-1H-indazol-5-ylamino]-pyrrolo[2,1-f][1,2,4]triazin-7-yl}-phenyl)-methanesulfonamide], for which the IC50 was 100 to 1000 nM at ALK and less than 100 nM on JAK2.

With `CN(c1ccccc1-c1ccc2cnc(Nc3ccc4cnn(CCN5CCOCC5)c4c3)nn12)S(C)(=O)=O` [Example 1334, N-Methyl-N-(2-{2-[1-(2-morpholin-4-yl-ethyl)-1H-indazol-6-ylamino]-pyrrolo[2,1-f][1,2,4]triazin-7-yl}-phenyl)-methanesulfonamide], the values for the IC50 at ALK and on JAK2 were 1000 to 10000 nM and less than 100 nM, respectively.

Take `CN(c1ccccc1-c1ccc2cnc(Nc3ccc4c(c3)ncn4CCN3CCOCC3)nn12)S(C)(=O)=O` [Example 1335, N-Methyl-N-(2-{2-[1-(2-morpholin-4-yl-ethyl)-1H-benzimidazol-5-ylamino]-pyrrolo[2,1-f][1,2,4]triazin-7-yl}-phenyl)-methanesulfonamide]: the IC50 on ALK was 100 to 1000 nM; at JAK2, less than 100 nM.

Take `CN(c1ccccc1-c1ccc2cnc(Nc3ccc4ncn(CCN5CCOCC5)c4c3)nn12)S(C)(=O)=O` [Example 1336, N-Methyl-N-(2-{2-[3-(2-morpholin-4-yl-ethyl)-3H-benzimidazol-5-ylamino]-pyrrolo[2,1-f][1,2,4]triazin-7-yl}-phenyl)-methanesulfonamide]: the IC50 on ALK is 1000 to 10000 nM; on JAK2, less than 100 nM.

For `CN(c1ccccc1-c1ccc2cnc(Nc3ccc4cn[nH]c4c3)nn12)S(C)(=O)=O` [Example 1337, N-{2-[2-(1H-Indazol-6-ylamino)-pyrrolo[2,1-f][1,2,4]triazin-7-yl]-phenyl}-N-methyl-methanesulfonamide], the IC50 at ALK is 100 to 1000 nM; at JAK2, less than 100 nM.

On to `CN(c1ccccc1-c1ccc2cnc(Nc3ccc4[nH]ncc4c3)nn12)S(C)(=O)=O` [Example 1338, N-{2-[2-(1H-Indazol-5-ylamino)-pyrrolo[2,1-f][1,2,4]triazin-7-yl]-phenyl}-N-methyl-methanesulfonamide], for which the values for the IC50 on ALK and on JAK2 were 100 to 1000 nM and less than 100 nM, respectively.
